From patent publication US20190275179A1, “SONOPHORE-LABELED PROBES AND RELATED IN VIVO IMAGING TECHNIQUES” (MEMORIAL SLOAN KETTERING CANCER CENTER, priority 2016, published 2019)

Legend:
[1] = In vivo optoacoustic imaging (RSOM) of BHQ-1 in mouse footpad; design: species or system mice
Protocol: For in vivo experiments, 6-8 week old female Hsd: Athymic Nude-Foxn1^nu mice were purchased from Envigo (IN, US). All animal experiments were performed in accordance with institutional guidelines and approved by the IACUC of MSK, and followed NIH guidelines for animal welfare.
For imaging, a high-resolution raster-scan optoacoustic mesoscopy (RSOM) prototype scanner was used in an epi-illumination mode. The scanner illuminates the tissue with a fast monochromatic nanosecond laser (1 ns, 2 kHz, 1 mJ pulse energy at 532 nm). The laser light was coupled to the sample using a three arm fiber bundle which is combined with the ultrasound detector into a single scan unit. The optoacoustic signals were measured with a 50 MHz spherically focused detector and a bandwidth of 5-80 MHz. Furthermore, the signals were amplified with a 63 dB low noise amplifier and digitized using a fast 12 bit data acquisition card. The scan was performed in a continuous-discrete manner. The usual scan took 1.30 minutes for a field of view of 8×8 mm^2 and the maximum depth was about 2 mm, limited by the penetration depth of 532 nm photons in tissue.
The raw signals were transformed to the computer on which they were later reconstructed using beam forming. Before reconstruction, the signals were divided into two sub-bands: low frequencies 5-25 MHz and high frequencies 25-80 MHz. These sub-bands were later on separately reconstructed an overlayed using different colors (red=low frequencies, green=high frequencies). For the reconstruction a speed of sound of 1540 m/s has been used and the reconstruction has been performed with voxel sizes of 20×20×5 μm^3. Finally, the Hilbert transform was applied to the reconstructed volume to remove the negative values and the images were further processed using a Wiener and a Median filter to improve the signal to noise ratio. For visualization we took the maximum intensity of the three-dimensional volume.
All mice were anesthetized using 2% isoflurane. For imaging the quencher dye in vivo, 10 nmol BHQ-1 solution were injected subcutaneously into the footpad of 3 mice. The mouse was then placed in a pre-warmed water bath on a mouse bed keeping the head of the animal above water level. The foot of the mouse was stabilized under water with tape to keep it in a static position for the measurement procedure. The feet were measured before and directly after injection using RSOM as described under 2.3. Quantitative analysis was done in ImageJ by placing a ROI over the injection site of each foot as well as over the background blood vessels in the foot pad.

[2] = Absorbance spectra of BHQ-1 and BHQ-1-cRGD by spectrophotometry; assay type: physicochemical; conditions: measured in ethanol, 250 nm to 750 nm
Protocol: To a stirring solution of cyclic RGD (cyclo(Arg-Gly-Asp-D-Phe-Lys) (cRGD), 1.0 mg, 1.66 μmol, 1.0 eq., Peptides International, KY, US) in anhydrous DMF (200 μL) a solution of BHQ-1 N-hydroxysuccinimide (NHS) ester (1.2 mg, 2.0 μmol, 1.2 eq., Biosearch Technologies, CA, US) in anhydrous DMF (200 μL) and […] (1.2 μL, 8.0 μmol, 4.8 eq.) was added sequentially. The resulting reaction solution was stirred for 4 h at room temperature. Purification by high performance liquid chromatography (HPLC) (C18, 10% to 100% of acetonitrile over 10 min, then 100% of acetonitrile until 18 min, 1.0 mL/min) yielded BHQ-1-cRGD (1.5 mg, 1.4 μmol, 82%) as a black solid. The purity of BHQ-1-cRGD was analyzed by performing analytical HPLC (rt=11.0 min, >97%). The identity of the product ([…], MW: 1090.21 g/mol) was verified by electrospray ionization mass spectrometry (ESI(+): m/z (%) 546.70 (100) [M+2H]^2+, 1090.40 (25) [M+H]^+). The absorbance spectra of BHQ-1 and BHQ-1-cRGD were measured in ethanol using spectrophotometry from 250 nm to 750 nm.

[3] = 10 nmol subcutaneous into footpad

COc1cc(/N=N/c2ccc(C)cc2[N+](=O)[O-])c(C)cc1/N=N/c1ccc(N)cc1 [BHQ-1]
optoacoustic signal at the injection site, high frequencies (25-80 MHz) [1, 3]: 55.6±5.7 AU | optoacoustic signal at the injection site, low frequencies (5-25 MHz) [1, 3]: 67.2±3.4 AU | optoacoustic signal at the injection site, overlay image of all detected frequencies ([1]; 10 nmol subcutaneous into footpad, directly after injection): 121.6±14.2 AU | optoacoustic signal at injection site relative to surrounding footpad vessels ([1]; overlay of all frequencies, 10 nmol s.c.): ~5 times | absorption spectrum peak [2]: 515 nm
